According to article PMC3797685, “Enhanced Production, Purification, Characterization and Mechanism of Action of Salivaricin 9 Lantibiotic Produced by Streptococcus salivarius NU10” (PLoS ONE, 2013):
Starred links: 1 amine or outer side, 2 acyl side, 3 side chain; linkers in the order of their positions; H or OH if unused. Positions of bridges follow the written chain, without caps; N, C: chain ends. Non-standard residues stand in square brackets, D forms with d. Residues, ends and D or L forms follow the SMILES beside them. dAbu(3S-yl) = C[C@@H]([C@@H](N[*:1])C(=O)[*:2])[*:3]; Dhb = C/C=C(\N)C(=O)O

Legend:
[1] = test system: Lactococcus lactis strain ATCC11454; assay: Induction assay, nisin-producing strain ATCC11454; type: cell-based; details: 0.05 ml test sample, 18 h, well diffusion assay
[2] = test system: Streptococcus pyogenes ATCC12344; assay: Minimal inhibitory concentration (NCCLS); type: cell-based; details: pure salivaricin 9, NCCLS method
Protocol: An induced culture of S. salivarius NU10 was centrifuged at 8000 x g to pellet the cells. The cell free supernatant (CFS) was filtered through 0.2 µm sterilized cellulose membrane (Millipore) to ensure that all cell debris was removed. The filtered crude bacteriocin preparation was passed through 100 ml XAD-16 particles (Sigma) packed in a glass column. The column was washed with 400 ml of distilled water followed by 200 ml of 70% methanol before the active fraction was eluted using 200 ml of 95% methanol (adjusted to pH 2) at a flow rate of 15 ml/min. The methanol was removed using a rotary evaporator and the resulting peptide preparation was lyophilized and stored at -20°C. The lyophilized peptide pellets were dissolved in 20 mM sodium phosphate pH 5.8 (binding buffer). Then the sample was injected into a fast protein liquid chromatography (FPLC) system (ÄKTA Purifier™) using HiTrap SP FF 5ml strong cation exchanger column (GE Healthcare) equilibrated with the same buffer at a flow rate of 1 ml/min. Then the column was washed with 10X column volume of the binding buffer before salivaricin 9 was eluted using a linear gradient of 0 to 1M NaCl in 20 mM sodium phosphate buffer at pH 5.8 (Figure 4). […] MIC values of pure salivaricin 9 against a set of bacterial indicator strains were determined by following the National Committee for Clinical Laboratory Standards (NCCLS) (Table 3).

[3] = test system: Micrococcus luteus ATCC10240; assay: Flow cytometry analysis of membrane disruption (propidium iodide); type: cell-based; details: PI 25 µM, 30 minutes at 37°C
Protocol: For membrane integrity assay using the dye propidium iodide (PI), cultures of Micrococcus luteus ATCC10240 were grown over night at 37°C in THB supplemented with 0.5% glucose (THBG) and then diluted with fresh THBG to an OD600 of 0.1. The cells were centrifuged at 4000 x g for 5 minutes at 4°C and washed twice with washing buffer (2 mM HEPES + 2 mM glucose) before re-suspending in the same buffer and adjusting to OD600 0.1. The cells were exposed to salivaricin 9 (12, 20 µg/ml) or nisin (20 µg/ml) (Sigma) and PI (final concentration 25 µM) before incubating for 30 minutes at 37°C. Nuclease-Free Water (Promega, USA) was added instead of antibiotic and served as a negative control. Samples were analyzed using BD FACSCanto^TM II flow cytometer using excitation at 488 nm and with the standard filter setup. Each sample was examined in triplicate and the geometric mean fluorescence intensity (MFI) of gated cell populations was calculated (Figure 9).

Micrococcus luteus = assay: Heat stability (residual inhibitory activity); type: physicochemical; details: for Inhibition zone after heat treatment: indicator Micrococcus luteus, titre 800 AU/ml
Protocol: Heat stability was studied by exposing pure salivaricin 9 to different temperatures for one hour after which the sample was centrifuged and the supernatant tested for inhibitory activity. The stability of the peptide at different pH values was also evaluated and tested for inhibitory activity. Specific enzymatic effects of denaturation on salivaricin 9 were tested using two wells of 6mm diameter each separated by a distance of 4 mm in CAB plates. One well was filled with 50µl of pure salivaricin 9 while the other was filled with 50µl of the tested enzyme. The plate was incubated at 50°C for 2 hours and then incubated at 37°C overnight before seeding the indicator strain onto the agar surface using a cotton swab. Then the plate was re-incubated at 37°C for 18 hours and the zones of inhibitions that appeared indicated residual activity of salivaricin 9 while absence of inhibition zones indicated the denaturation of the antimicrobial peptide by the applied enzymes namely proteinase K, peptidase, lyticase and catalase. The stability of salivaricin 9 to treatment with the chemicals EDTA, SDS, urea, NaCl and β-mercaptoethanol was examined by adding 1% of these chemicals to the bacteriocin followed by incubation for two hours at RT before the samples were centrifuged and the supernatant tested as mentioned above. If the chemical was a solvent such as β-mercaptoethanol, then the solvent was evaporated before testing for antimicrobial activity (Table 4).

Catalase = assay: Enzyme stability (residual inhibitory activity)
Protocol: Specific enzymatic effects of denaturation on salivaricin 9 were tested using two wells of 6mm diameter each separated by a distance of 4 mm in CAB plates. One well was filled with 50µl of pure salivaricin 9 while the other was filled with 50µl of the tested enzyme. The plate was incubated at 50°C for 2 hours and then incubated at 37°C overnight before seeding the indicator strain onto the agar surface using a cotton swab. Then the plate was re-incubated at 37°C for 18 hours and the zones of inhibitions that appeared indicated residual activity of salivaricin 9 while absence of inhibition zones indicated the denaturation of the antimicrobial peptide by the applied enzymes namely proteinase K, peptidase, lyticase and catalase.

Protocol for Peptidase: Heat stability was studied by exposing pure salivaricin 9 to different temperatures for one hour after which the sample was centrifuged and the supernatant tested for inhibitory activity. The stability of the peptide at different pH values was also evaluated and tested for inhibitory activity. Specific enzymatic effects of denaturation on salivaricin 9 were tested using two wells of 6mm diameter each separated by a distance of 4 mm in CAB plates. One well was filled with 50µl of pure salivaricin 9 while the other was filled with 50µl of the tested enzyme. The plate was incubated at 50°C for 2 hours and then incubated at 37°C overnight before seeding the indicator strain onto the agar surface using a cotton swab. Then the plate was re-incubated at 37°C for 18 hours and the zones of inhibitions that appeared indicated residual activity of salivaricin 9 while absence of inhibition zones indicated the denaturation of the antimicrobial peptide by the applied enzymes namely proteinase K, peptidase, lyticase and catalase. The stability of salivaricin 9 to treatment with the chemicals EDTA, SDS, urea, NaCl and β-mercaptoethanol was examined by adding 1% of these chemicals to the bacteriocin followed by incubation for two hours at RT before the samples were centrifuged and the supernatant tested as mentioned above. […]

SMILES: C/C=C1\NC(=O)[C@H](Cc2c[nH]c3ccccc23)NC(=O)[C@@H]2NC(=O)[C@H](C)NC(=O)[C@H](CC(C)C)NC(=O)[C@H](CC(N)=O)NC(=O)[C@@H]3CS[C@@H](C)[C@@H](NC(=O)[C@H](CC(C)C)NC(=O)[C@@H](NC(=O)[C@@H](NC(=O)CNC(=O)[C@H](CC(N)=O)NC(=O)CN)C(C)C)C(C)C)C(=O)N[C@@H](CC(C)C)C(=O)N[C@@H](C(=O)N[C@@H](Cc4c[nH]cn4)C(=O)N[C@@H](CCC(=O)O)C(=O)N3)[C@H](C)SC[C@H](NC(=O)[C@H](CCCCN)NC(=O)[C@H](CC(C)C)NC(=O)[C@H](CCCCN)NC(=O)[C@H](CCCCN)NC1=O)C(=O)N[C@H](C(=O)O)CS[C@H]2C [Salivaricin 9] (H-GNGVVL[dAbu(3S-yl)]L[dAbu(3S-yl)]HECNLA[dAbu(3S-yl)]W[Dhb]KKLKCC-OH; thioether 7-12, 9-23, 16-24; N-terminus and C-terminus assumed)
- Preparation induces inhibitor production in ATCC11454 [1]: No
- MIC of salivaricin 9 [2]: 32 µg/mL
- Propidium iodide uptake, geometric mean fluorescence intensity (MFI) ([3]; 4 µg/ml (MIC)): did not show significant increase in the MFI
- Propidium iodide uptake, geometric mean fluorescence intensity (MFI) ([3]; 12 µg/ml (3-fold MIC), triplicate): significant MFI increments
- Propidium iodide uptake, geometric mean fluorescence intensity (MFI) ([3]; 20 µg/ml, triplicate): significant MFI increments
- Inhibition zone after heat treatment (Micrococcus luteus; 4, 20, 30, 37, 40, 50, 60, 70, 80 °C for 1 hour): ++++ (inhibition zone >20 mm)
- Inhibition zone after heat treatment (Micrococcus luteus; 90, 100 °C for 30 min): +++ (inhibition zone =20 mm)
- Biological stability at high temperature (in words) (Micrococcus luteus; 90-100°C for 30 minutes): retained biological stability
- Inhibition zone after heat treatment (Micrococcus luteus; 121 °C for 20 min): -
- Inhibition zone after enzyme treatment (Catalase; Catalase 1 mg.ml^-1, adjacent wells, 50 µl each, 50°C 2 hours then 37°C overnight, indicator Micrococcus luteus, titre 800 AU/ml): ++++ (inhibition zone >20 mm)
- Antimicrobial activity after enzyme treatment (in words) (Catalase; treated with catalase): remained active
- Inhibition zone after enzyme treatment (Peptidase; Peptidase 1 mg.ml^-1, adjacent wells, 50 µl each, 50°C 2 hours then 37°C overnight, indicator Micrococcus luteus, titre 800 AU/ml): -
- Antimicrobial activity after enzyme treatment (in words) (Peptidase; treated with peptidase): lost all antimicrobial activity
